Results published in ChEMBL document CHEMBL5113392, “Novel hybrid pyrrolidinedione-thiazolidinones as potential anticancer agents: Synthesis and biological evaluation” (Eur J Med Chem, 2022).
Activity calls are given as the source filed them. The rule behind the calls is not given here.

Columns and labels:
NCI-H522 = assay: Anticancer activity against human NCI-H522 cells assessed as inhibition of cell growth at 10 uM incubated for 48 hrs by SRB assay; format: functional; conditions: NCI-H522, 48 h, values are per cent of control
OVCAR-3 = assay: Anticancer activity against human OVCAR-3 cells assessed as inhibition of cell growth at 10 uM incubated for 48 hrs by SRB assay; format: functional; conditions: OVCAR-3, 48 h, values are per cent of control
ACHN [1] = assay: Anticancer activity against human ACHN cells assessed as growth inhibition incubated for 48 hrs by SRB assay; format: functional
T47D = assay: Anticancer activity against human T47D cells assessed as total growth inhibition incubated for 48 hrs by SRB assay; format: functional
Jurkat [2] = assay: Induction of apoptosis in human Jurkat cells assessed as increase in cleaved capase-3 level at 3.5 uM for 24 hrs by Western blot analysis; format: functional, cell-based
Jurkat [3] = assay: Induction of apoptosis in human Jurkat cells assessed as increase in Bax level at 3.5 uM for 24 hrs by Western blot analysis; format: functional, cell-based
Jurkat [4] = assay: Induction of apoptosis in human Jurkat cells assessed as decrease in Bcl-2 level at 3.5 uM for 24 hrs by Western blot analysis; format: functional, cell-based
Jurkat [5] = assay: Induction of DNA damage in human Jurkat cells assessed as tail DNA at 3.5 uM incubated for 24 hrs by alkaline Comet assay; format: functional
Lymphocyte [6] = assay: Induction of DNA damage in mitogen activated human peripheral blood lymphocytes assessed as tail DNA at 3.5 uM incubated for 24 hrs by alkaline Comet assay; format: toxicity, cell-based
Jurkat [7] = assay: Induction of DNA damage in human Jurkat cells assessed as olive tail moment at 3.5 uM incubated for 24 hrs by alkaline Comet assay; format: functional
Lymphocyte [8] = assay: Induction of DNA damage in mitogen activated human peripheral blood lymphocytes assessed as olive tail moment at 3.5 uM incubated for 24 hrs by alkaline Comet assay; format: toxicity, cell-based
Jurkat [9] = assay: Induction of DNA damage in human Jurkat cells assessed as proapoptotic inter-nucleosomal fragmentation at 3.5 uM for 24 hrs by Agarose gel electrophoresis analysis; format: functional, cell-based
KM12 [10] = assay: Anticancer activity against human KM12 cells assessed as inhibition of cell growth at 10 uM incubated for 48 hrs by SRB assay; format: functional; conditions: KM12, 48 h, values are per cent of control
CAKI-1 = assay: Anticancer activity against human CAKI-1 cells assessed as inhibition of cell growth at 10 uM incubated for 48 hrs by SRB assay; format: functional; conditions: CAKI-1, 48 h, values are per cent of control
A549 = assay: Anticancer activity against human A549 cells assessed as growth inhibition incubated for 48 hrs by SRB assay; format: functional
KM12 [11] = assay: Anticancer activity against human KM12 cells assessed as total growth inhibition incubated for 48 hrs by SRB assay; format: functional
SK-MEL-5 [12] = assay: Anticancer activity against human SK-MEL-5 cells assessed as total growth inhibition incubated for 48 hrs by SRB assay; format: functional
DU-145 = assay: Anticancer activity against human DU-145 cells assessed as total growth inhibition incubated for 48 hrs by SRB assay; format: functional
SK-MEL-5 [13] = assay: Anticancer activity against human SK-MEL-5 cells assessed as lethality incubated for 48 hrs by SRB assay; format: functional; conditions: read-out: LC50 (the source's name)
OVCAR-5 = assay: Anticancer activity against human OVCAR-5 cells assessed as lethality incubated for 48 hrs by SRB assay; format: functional; conditions: read-out: LC50 (the source's name)
786-0 = assay: Anticancer activity against human 786-0 cells assessed as lethality incubated for 48 hrs by SRB assay; format: functional; conditions: read-out: LC50 (the source's name)
ACHN [14] = assay: Anticancer activity against human ACHN cells assessed as lethality incubated for 48 hrs by SRB assay; format: functional; conditions: read-out: LC50 (the source's name)
Jurkat [15] = assay: Induction of apoptosis in human Jurkat cells assessed as increase in cleaved capase-3 level at 1.5 uM for 24 hrs by Western blot analysis; format: functional, cell-based
Jurkat [16] = assay: Induction of apoptosis in human Jurkat cells assessed as increase in Bax level at 1.5 uM for 24 hrs by Western blot analysis; format: functional, cell-based
Jurkat [17] = assay: Induction of apoptosis in human Jurkat cells assessed as decrease in Bcl-2 level at 1.5 uM for 24 hrs by Western blot analysis; format: functional, cell-based
Salmon testes DNA [18] = assay: Binding affinity to double stranded salmon sperm DNA assessed as increase in DNA oxidation level by measuring net change in absorbance at 10 uM incubated for 1 hr by UV based spectroscopic method; format: nucleic-acid assay; conditions: Salmo salar
Salmon testes DNA [19] = assay: Binding affinity to single stranded salmon sperm DNA assessed as increase in DNA oxidation level by measuring net change in absorbance at 10 uM incubated for 1 hr by UV based spectroscopic method; format: nucleic-acid assay; conditions: Salmo salar
Jurkat [20] = assay: Induction of DNA damage in human Jurkat cells assessed as tail DNA at 1.5 uM incubated for 24 hrs by alkaline Comet assay; format: functional
Lymphocyte [21] = assay: Induction of DNA damage in mitogen activated human peripheral blood lymphocytes assessed as tail DNA at 1.5 uM incubated for 24 hrs by alkaline Comet assay; format: toxicity, cell-based
HCT-116 [22] = assay: Induction of DNA damage in human HCT-116 cells assessed as tail DNA at 1 uM incubated for 2 hrs by alkaline Comet assay; format: functional
HCT-116 [23] = assay: Induction of DNA damage in human HCT-116 […] assessed as tail DNA at 1 uM incubated for 2 hrs in dark by Comet assay; format: functional
Jurkat [24] = assay: Induction of DNA damage in human Jurkat cells assessed as olive tail moment at 1.5 uM incubated for 24 hrs by alkaline Comet assay; format: functional
Lymphocyte [25] = assay: Induction of DNA damage in mitogen activated human peripheral blood lymphocytes assessed as olive tail moment at 1.5 uM incubated for 24 hrs by alkaline Comet assay; format: toxicity, cell-based
HCT-116 [26] = assay: Induction of DNA damage in human HCT-116 cells assessed as olive tail moment at 1 uM incubated for 2 hrs by alkaline Comet assay; format: functional
HCT-116 [27] = assay: Induction of DNA damage in human HCT-116 cell lysate assessed as olive tail moment at 1 uM incubated for 2 hrs in dark by Comet assay; format: functional
Jurkat [28] = assay: Induction of DNA damage in human Jurkat cells assessed as proapoptotic inter-nucleosomal fragmentation at 1.5 uM for 24 hrs by Agarose gel electrophoresis analysis; format: functional, cell-based

With `O=C1CC(N2C(=O)/C(=C/C(Cl)=C/c3ccc([N+](=O)[O-])cc3)SC2=S)C(=O)N1c1ccc(Cl)cc1` (stereo not drawn) the growth, % of control at 10 µM (NCI-H522) was -26.4%, the growth, % of control at 10 µM (OVCAR-3) was -35.4% and the GI50 (ACHN [1]) was 1.34 µM. The TGI (T47D) was 6.34 µM, the Activity (Jurkat [2]) was “Active” and the Activity (Jurkat [3]) was “Active”. For the same compound, the Activity (Jurkat [4]) was “Active”, the Activity (Jurkat [5]) was 48.35% and the Activity (Lymphocyte [6]) was 4.25%. The Activity (Jurkat [7]) was 18.1%, the Activity (Lymphocyte [8]) was 0.86% and the Activity (Jurkat [9]) was “Active”.
Work on `O=C1CC(N2C(=O)/C(=C/C(Cl)=C/c3ccc([N+](=O)[O-])cc3)SC2=S)C(=O)N1c1ccc(O)cc1` (stereo not drawn) yielded a growth, % of control at 10 µM (KM12 [10]) of -72.4%, a growth, % of control at 10 µM (CAKI-1) of -71.4% and a GI50 (A549) of 3.11 µM. It also gave a GI50 (ACHN [1]) of 1.36 µM, a TGI (KM12 [11]) of 4.64 µM and a TGI (SK-MEL-5 [12]) of 3.66 µM. The TGI (DU-145) was 3.37 µM, the TGI (T47D) was 15.8 µM and the CC50 (SK-MEL-5 [13]) was 6.97 µM. It also gave a CC50 (OVCAR-5) of 7.16 µM, a CC50 (786-0) of 25.5 µM and a CC50 (ACHN [14]) of 5.59 µM. The Activity (Jurkat [15]) was “Active”, the Activity (Jurkat [16]) was “Active” and the Activity (Jurkat [17]) was “Active”. The Activity (Salmon testes DNA [18]) was “Active”, the Activity (Salmon testes DNA [19]) was “Active” and the Activity (Jurkat [20]) was 53.4%. The Activity (Lymphocyte [21]) was 2.92%, the Activity (HCT-116 [22]) was 26.5% and the Activity (HCT-116 [23]) was 13.1%. It also gave an Activity (Jurkat [24]) of 8.63%, an Activity (Lymphocyte [25]) of 0.28% and an Activity (HCT-116 [26]) of 9.84%. The Activity (HCT-116 [27]) was 3.05% and the Activity (Jurkat [28]) was “Active”.
